For 1 compound, IC50 results are on record in ChEMBL document CHEMBL2176984, “Target Selectivity of FimH Antagonists” (J Med Chem, 2012).

The target in the test is T1, C-type lectin domain family 4 member C (Homo sapiens, UniProt Q8WTT0).
T1 sequence (Q8WTT0 whole entry): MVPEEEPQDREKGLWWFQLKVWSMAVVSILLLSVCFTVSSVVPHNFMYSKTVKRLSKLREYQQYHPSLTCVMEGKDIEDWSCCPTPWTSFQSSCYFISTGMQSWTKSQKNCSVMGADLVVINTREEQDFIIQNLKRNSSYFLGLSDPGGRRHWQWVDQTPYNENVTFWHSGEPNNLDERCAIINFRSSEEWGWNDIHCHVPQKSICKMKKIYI
The experiment in a line: Displacement of biotinylated-TM PAA from human DLEC after 3 hrs by colorimetry.

In the case of `O=C(O)c1ccc(-c2ccc(O[C@H]3O[C@H](CO)[C@@H](O)[C@H](O)[C@@H]3O)cc2)cc1`, the IC50 turned out to be 1 mM.
